According to patent US20260234555A1 (priority 2022, published 2026):

Test system: mouse salivary gland organoids

| Compound | effect on the morphology and growth of the organoids | changes in the morphology and growth of the organoids |
| --- | --- | --- |
| CC(=O)OCC[N+](C)(C)C.[Cl-] [acetylcholine, Acetylcholine chloride] | no effect |  |
| CN(C)C(=O)Oc1cccc([N+](C)(C)C)c1 [neostigmine, Neostigmine bromide] |  | no significant changes |
